In data set [1] the target is T1, USP24 (Homo sapiens, UniProt Q9UPU5). Particulars: known; cited from earlier work.
For data set [2], the target named is T1, USP24. Put plainly: inhibition of USP24 activity. The note with it: in comparison to USP24-i1; not shown in the figures. The format is biochemical.
In another data set the test system is USP24-WT mice. The data set is described as follows: liver tissue section H&E staining after normal diet or high-fat diet and USP24 inhibitor. It counts as in vivo. Particulars: USP24 inhibitor oral 2 months. The source says:
(§1) Animal-related experiments had been reviewed and approved by the Institutional Animal Care and Use Committee (IACUC) of National Cheng Kung University (NCKU). These genetically modified mice were generated at the National Laboratory Animal Center (NLAC) in Tainan, Taiwan. After breeding, 2 months-old wild-type mice and genetically modified mice were used to study lipogenesis progress. The cages provided adequate space, and the population density allowed the animals to move freely. The provided feed was sufficient for the normal growth and maintenance of regular body weight in both wild-type and genetically modified mice. Genetically modified mice had access to fresh, uncontaminated drinking water. Genetically modified mice were observed and cared for at least 2 to 3 times a week. All animal-related procedures were conducted in accordance with relevant guidelines and regulations.
It was known that USP24 inhibitor (USP24-i1, NCI677397, Formula I-3-3) could block USP24 catalytic activity, delaying or reversing cancer drug resistance.

The subject of another data set is USP24-WT HFD mice. The data set is described as follows: Oil-Red-O staining assay of liver tissue sections (hepatic lipid accumulation). It counts as in vivo. The note with it: i.p. 10 mg/kg once a week for two consecutive months.
Description: as §1
In this embodiment, the analysis of hepatic lipid accumulation and distribution were performed using the Oil-Red-O staining assay. […] The USP24 inhibitor was administered by intraperitoneal injection (i.p.) at a dose of 10 mg/kg once a week for two consecutive months. Statistical analysis was conducted using a t-test, where * indicates p<0.01, and ** indicates p<0.005 (FIG. 5B).

Another data set relates to 3T3-L1 cells. Put plainly: differentiation of 3T3-L1 cells into adipocytes, Oil-Red-O staining. The format is cell-based, mouse. The note with it: 5 μM or 10 μM, MDIR induction, Oil-Red-O on days 8-10; dose-dependent; vs DMSO. As for the experimental part: (§2) Commercially available mouse fibroblast cell line 3T3-L1 was cultured in commercially available Dulbecco's Modified Eagle Medium (DMEM) containing 10% fetal bovine serum (FBS), 100 μg/mL streptomycin, and 100 U/ml penicillin G sodium salt. All cell cultures were maintained at 37° C. with 5% CO2.
Please referred to FIG. 6A, which illustrated the experimental procedure for evaluating the effects of USP24 inhibitor on the induction of 3T3-L1 cells into adipocytes according to an embodiment of the present invention. When 3T3-L1 cells reached approximately 70% confluence, the MDIR induction medium containing USP24 inhibitor (5 μM or 10 μM) was added to the cells on day 0 and cultured for 2 days. Subsequently, on day 2, the induction medium was replaced with fresh medium containing USP24 inhibitor (5 μM or 10 μM) and insulin (10 μg/mL), and the cells were cultured for an additional 2 days. Next, the culture medium was changed the fresh medium containing USP24 inhibitor on day 4, and the cells were cultured for 4-6 more days, allowing 3T3-L1 cells to differentiate into adipocytes or adipocyte-like cells. And then, the cells were stained with Oil-Red-O (on days 8-10) to assess the influence of USP24 inhibitor on adipocyte formation, as shown in FIGS. 6B and 6C. […]

Data set [3] has as its system differentiated 3T3-L1 cells. Put plainly: Western blotting of proteins associated with adipocyte formation in 3T3-L1 cells. The format is cell-based, mouse. Particulars: Western blot, vs DMSO. As for the experimental part: as §2
Please referred to FIG. 6A, which illustrated the experimental procedure for evaluating the effects of USP24 inhibitor on the induction of 3T3-L1 cells into adipocytes according to an embodiment of the present invention. When 3T3-L1 cells reached approximately 70% confluence, the MDIR induction medium containing USP24 inhibitor (5 μM or 10 μM) was added to the cells on day 0 and cultured for 2 days. Subsequently, on day 2, the induction medium was replaced with fresh medium containing USP24 inhibitor (5 μM or 10 μM) and insulin (10 μg/mL), and the cells were cultured for an additional 2 days. Next, the culture medium was changed the fresh medium containing USP24 inhibitor on day 4, and the cells were cultured for 4-6 more days, allowing 3T3-L1 cells to differentiate into adipocytes or adipocyte-like cells. And then, the cells were stained with Oil-Red-O (on days 8-10) to assess the influence of USP24 inhibitor on adipocyte formation, as shown in FIGS. 6B and 6C.
The MDIR induction medium included 0.5 mM 3-isobutyl-1-methylxanthine (IBMX), 1 μM dexamethasone (D), […] insulin (I), and 1 μM rosiglitazone (R) in Dulbecco's Modified Eagle Medium (DMEM). The components M, D, R, and USP24 inhibitor were dissolved in dimethyl sulfoxide (DMSO) and then added to DMEM. The insulin culture medium contained 10 μg/mL insulin in DMEM, and the fresh medium included 10% fetal bovine serum (FBS) in DMEM.
It was known that PPAR-γ and PLIN1 were important markers for adipocytes. In this embodiment, commercially available antibodies were used to perform Western blotting on 3T3-L1 cells to evaluate the expression levels of proteins associated with adipocyte formation in response to USP24-i-a treatment, as shown in FIGS. 7A to 7G.

The test system of the next data set is CREB. Put plainly: CREB and its phosphorylation during 3T3-L1 differentiation. It counts as cell-based, mouse.
A further data set relates to HFD-mice. Put plainly: serum tests / safety assay by ELISA in ND and HFD mice. It counts as in vivo. Particulars: serum of HFD mice; i.p. 10 mg/kg once a week for two months. As for the experimental part:
As shown in FIGS. 10A to 10H, serum were collected from normal diet (ND) and high fat diet (HFD) mice with or without USP24-i-101 treatment to study the safety assay by ELISA assay.
In this Example, wild-type mice were fed a normal diet (ND) or a high-fat diet (HFD), and they were injected intraperitoneally (i.p.) with 10 mg/kg of USP24-i once a week for two consecutive months. Subsequently, mouse sera were collected, and serum-related indices were examined to assess the impact of USP24-i on lipogenesis and liver function, as depicted in FIGS. 10A to 10H.
There was no statistically significant difference of the time of latency to fall off the rotarod between the USP 24 KO mice and the wild-type USP 24 mice, as shown in FIG. 10B. Mouse sera were collected from normal diet (ND) and high fat diet (HFD) mice with or without USP24-i treatment to perform the safety evaluation by ELISA assay. […] Therefore, USP24 inhibitor could inhibit the lipogenesis, thereby improving liver activity.

In data set [4] the test system is HFD mice. Put plainly: treatment of HFD mice after obesity: body weight, visceral fat, fatty liver, eWAT and iWAT. The format is in vivo. The source says:
(§3) In the previous studies of the inventors, USP24-i-101 treated (i.p.) the HFD mice from the initiation of the experiment. […] In this Example, USP24-i-101 treated the mice after obesity, not from initiation. Mice were fed with HFD for two months and then treated with USP24-i-101 one month (two times per week, i.p.).
In addition, USP24-i-101 could inhibit eWAT and iWAT of mice. The subcutaneous fat and visceral fat (around organs such as kidney and reproductive organs) were collected to analyze the size of the epididymal WAT [eWAT, as shown in FIG. 11D (a), upper panel of FIG. 11D(c) and upper panel of FIG. 11D(d)] and inguial WAT [iWAT, as shown in FIG. 11D(b), lower panel of FIG. 11D(c) and lower panel of FIG. 11D(d)].

Data set [5] has as its system HFD mice. Put plainly: treatment of HFD mice from the initiation of the experiment (previous studies of the inventors). The format is in vivo. The note with it: HFD mice treated i.p. from the initiation of the experiment.
Description: as §3

Data set [6] has as its system HFD mice. Put plainly: magnetic resonance imaging (MRI) of level and distribution of fat in HFD mice. Particulars: MRI in vivo signal and collected kidney organs. The source says:
The HFD mice with or without USP24-i-101 treatment according to the experimental flowchart of FIG. 12A were examined by magnetic resonance imaging (MRI) equipment to assess the level and distribution of fat inside them.

Setting [7] is: HFD two months, then treatment one month, two times per week, i.p.

T1 sequence (Q9UPU5 whole entry, species assumed): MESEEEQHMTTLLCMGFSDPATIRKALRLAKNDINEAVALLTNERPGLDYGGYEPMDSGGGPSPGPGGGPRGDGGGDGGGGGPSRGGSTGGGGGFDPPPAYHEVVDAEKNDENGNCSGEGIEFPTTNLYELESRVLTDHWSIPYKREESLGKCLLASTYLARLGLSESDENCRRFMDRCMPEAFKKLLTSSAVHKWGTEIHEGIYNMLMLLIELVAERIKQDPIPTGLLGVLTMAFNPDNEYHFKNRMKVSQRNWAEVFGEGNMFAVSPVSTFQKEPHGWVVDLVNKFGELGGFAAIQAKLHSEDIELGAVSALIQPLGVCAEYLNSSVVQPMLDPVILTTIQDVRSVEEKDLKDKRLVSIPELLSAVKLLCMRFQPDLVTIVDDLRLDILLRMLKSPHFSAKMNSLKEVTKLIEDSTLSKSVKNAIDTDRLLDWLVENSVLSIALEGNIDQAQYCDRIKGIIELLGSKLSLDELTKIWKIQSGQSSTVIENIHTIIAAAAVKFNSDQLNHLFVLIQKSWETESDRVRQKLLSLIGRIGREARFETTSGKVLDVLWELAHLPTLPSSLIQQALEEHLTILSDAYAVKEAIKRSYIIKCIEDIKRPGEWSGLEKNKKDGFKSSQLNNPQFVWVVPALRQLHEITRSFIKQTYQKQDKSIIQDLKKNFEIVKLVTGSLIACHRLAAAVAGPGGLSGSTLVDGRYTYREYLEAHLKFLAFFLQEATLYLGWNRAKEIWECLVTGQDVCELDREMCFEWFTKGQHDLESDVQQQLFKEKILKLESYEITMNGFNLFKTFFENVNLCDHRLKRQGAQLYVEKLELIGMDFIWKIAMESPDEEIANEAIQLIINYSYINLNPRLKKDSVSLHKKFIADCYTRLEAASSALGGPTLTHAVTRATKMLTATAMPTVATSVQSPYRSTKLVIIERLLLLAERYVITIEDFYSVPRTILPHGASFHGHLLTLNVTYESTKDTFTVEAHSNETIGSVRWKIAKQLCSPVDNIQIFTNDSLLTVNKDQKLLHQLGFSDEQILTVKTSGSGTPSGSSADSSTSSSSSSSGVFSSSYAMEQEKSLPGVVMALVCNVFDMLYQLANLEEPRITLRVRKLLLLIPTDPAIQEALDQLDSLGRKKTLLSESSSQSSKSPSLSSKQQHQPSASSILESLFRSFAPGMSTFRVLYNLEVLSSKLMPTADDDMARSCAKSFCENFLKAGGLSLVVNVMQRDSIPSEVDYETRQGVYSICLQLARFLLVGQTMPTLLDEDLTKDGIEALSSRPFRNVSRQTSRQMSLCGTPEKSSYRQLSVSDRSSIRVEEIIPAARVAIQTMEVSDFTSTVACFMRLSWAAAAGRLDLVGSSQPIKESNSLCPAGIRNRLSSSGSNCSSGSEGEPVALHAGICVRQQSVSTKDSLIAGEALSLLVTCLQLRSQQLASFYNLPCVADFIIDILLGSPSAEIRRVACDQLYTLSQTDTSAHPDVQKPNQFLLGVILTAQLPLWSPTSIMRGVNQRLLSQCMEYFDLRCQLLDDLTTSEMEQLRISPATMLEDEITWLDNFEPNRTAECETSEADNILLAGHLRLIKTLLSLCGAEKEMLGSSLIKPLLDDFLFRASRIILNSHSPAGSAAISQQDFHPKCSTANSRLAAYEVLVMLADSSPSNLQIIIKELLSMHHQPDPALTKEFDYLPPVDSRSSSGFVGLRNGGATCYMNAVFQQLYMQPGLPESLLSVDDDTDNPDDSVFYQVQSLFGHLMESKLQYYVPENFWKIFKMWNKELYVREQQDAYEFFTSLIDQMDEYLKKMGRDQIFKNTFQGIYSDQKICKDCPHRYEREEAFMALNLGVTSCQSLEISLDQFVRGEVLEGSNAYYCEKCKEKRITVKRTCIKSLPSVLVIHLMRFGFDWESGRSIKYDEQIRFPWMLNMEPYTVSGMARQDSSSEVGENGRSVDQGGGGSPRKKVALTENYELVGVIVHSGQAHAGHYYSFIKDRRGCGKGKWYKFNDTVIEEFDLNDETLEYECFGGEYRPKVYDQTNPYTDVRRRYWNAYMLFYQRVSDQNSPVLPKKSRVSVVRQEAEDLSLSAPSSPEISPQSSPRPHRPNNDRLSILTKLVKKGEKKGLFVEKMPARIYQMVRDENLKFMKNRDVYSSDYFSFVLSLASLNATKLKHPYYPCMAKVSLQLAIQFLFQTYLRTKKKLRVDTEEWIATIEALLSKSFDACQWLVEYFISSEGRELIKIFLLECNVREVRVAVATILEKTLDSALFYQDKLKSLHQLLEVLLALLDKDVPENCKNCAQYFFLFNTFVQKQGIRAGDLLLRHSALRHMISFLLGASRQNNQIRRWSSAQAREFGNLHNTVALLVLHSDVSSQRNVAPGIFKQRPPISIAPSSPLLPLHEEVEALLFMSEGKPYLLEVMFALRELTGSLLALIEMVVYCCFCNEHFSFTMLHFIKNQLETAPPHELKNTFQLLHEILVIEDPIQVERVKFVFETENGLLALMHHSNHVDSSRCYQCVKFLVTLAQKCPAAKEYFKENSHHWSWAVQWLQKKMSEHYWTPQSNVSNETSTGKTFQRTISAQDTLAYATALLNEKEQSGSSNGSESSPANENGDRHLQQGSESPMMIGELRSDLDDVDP

For `CN1CCN(CCCCN2c3ccccc3Sc3ccc(C(=O)c4ccccc4)cc32)CC1` [USP24-i1], the USP24 catalytic activity entry at USP24 [1] is reported as “could block”.
Regarding `CN1CCN(CCN2c3ccccc3Sc3ccc(C(=O)c4ccccc4)cc32)CC1` [USP24-i-a], on USP24 [2], the “inhibition of USP24 activity” value is on record as “superior inhibition”. The “lipid droplets in liver (H&E)” value in the data set on USP24-WT mice (USP24-WT HFD mice, 2 months high-fat diet) is recorded as “few to no lipid droplets”. In the data set on USP24-WT mice (USP24-WT ND mice, 2 months normal diet), the “lipid droplets in liver (H&E)” value is recorded as “few to no lipid droplets”. Also, the “signals of Oil-Red-O staining in the liver” value in the data set on USP24-WT HFD mice is “significantly reduced or nearly disappeared”. Besides, in the data set on 3T3-L1 cells, the lipid droplet accumulation entry is “significant reversal”. Also, in [3], the “expression level of C/EBPβ” value was “also reduced” and the “expression level of SREBP1” value is recorded as “also reduced”. For the same compound, in data set [3] (dose-dependent), the “expression level of PLIN1 (Perilipin 1)” value is on record as “reduced” and the “expression level of PPAR-γ” value was “reduced”. Moreover, in the data set on CREB, the CREB result was “inhibited” and the CREB phosphorylation result was “inhibited”. In the data set with HFD-mice, the “GOT (glutamic oxaloacetic transaminase)” value is listed as “significantly inhibited”, the “GPT (glutamic pyruvic transaminase)” value was “significantly inhibited”, the “albumin (ALB)” value is “did not significantly change” and the total cholesterol result is on record as “significantly inhibited”. Moreover, in the data set on HFD-mice, the “total protein (TP)” value is recorded as “did not significantly change” and the “triglyceride (TG)” value is given as “did not significantly change”. Moreover, in the data set on HFD mice [4] (HFD mice), the “size of epididymal WAT (eWAT)” value is given as “could be inhibited” and the “size of inguial WAT (iWAT)” value is “could be inhibited”. Further, in the data set on HFD mice [4] (setting [7]), the body weight entry is given as “significantly decreased”, the fatty liver result was “really decreased” and the visceral fat result is “really decreased”. Besides, in the data set with HFD mice [5], the body weight entry was “could be inhibited” and the fatty liver entry was “could be inhibited”. In the data set on HFD mice [6], the “signal of fat around subcutaneous and organs” value was “significantly inhibited”.

The values above are taken from patent US20240197749A1, “METHOD OF INHIBITING LIPOGENESIS WITH UBIQUITIN-SPECIFIC PEPTIDASE 24 INHIBITOR COMPOSITION” (NATIONAL CHENG KUNG UNIVERSITY, priority 2022, published 2024).
